In ChEMBL document CHEMBL3400071, “The CERT antagonist HPA-12: first practical synthesis and individual binding evaluation of the four stereoisomers” (Bioorg Med Chem, 2015):

Target: T1, Ceramide transfer protein (Homo sapiens, UniProt Q9Y5P4)
T1 sequence (Q9Y5P4 whole entry): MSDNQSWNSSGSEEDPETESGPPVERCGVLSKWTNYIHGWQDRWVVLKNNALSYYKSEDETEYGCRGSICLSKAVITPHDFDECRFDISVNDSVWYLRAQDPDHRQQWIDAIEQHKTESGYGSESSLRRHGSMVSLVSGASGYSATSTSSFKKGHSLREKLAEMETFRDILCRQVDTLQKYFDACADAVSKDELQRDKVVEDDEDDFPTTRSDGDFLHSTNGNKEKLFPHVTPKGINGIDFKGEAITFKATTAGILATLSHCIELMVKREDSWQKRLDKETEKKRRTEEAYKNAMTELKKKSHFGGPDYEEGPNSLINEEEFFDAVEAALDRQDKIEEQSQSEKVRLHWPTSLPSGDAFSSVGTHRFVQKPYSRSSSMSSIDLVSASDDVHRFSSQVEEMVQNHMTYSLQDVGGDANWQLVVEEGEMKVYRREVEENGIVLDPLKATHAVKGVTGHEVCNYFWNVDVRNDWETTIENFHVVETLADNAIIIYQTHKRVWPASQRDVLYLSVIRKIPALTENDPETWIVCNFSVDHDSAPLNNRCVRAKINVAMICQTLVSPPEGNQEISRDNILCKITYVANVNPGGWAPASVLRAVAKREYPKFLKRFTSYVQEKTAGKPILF
Experiment: Binding affinity to histidine-tagged human recombinant […] containing CERT START domain pre-incubated for 30 mins before biotinylated ceramide probe addition and measured after 18 hrs post probe addition by TR-FRET binding assay

SMILES | EC50 [µM]
CCCCCCCCCCCC(=O)N[C@@H](CO)C[C@@H](O)c1ccccc1 | 22
CCCCCCCCCCCC(=O)N[C@H](CO)C[C@@H](O)c1ccccc1 | 159
CCCCCCCCCCCC(=O)N[C@@H](CO)C[C@H](O)c1ccccc1 | 4
CCCCCCCCCCCC(=O)N[C@H](CO)C[C@H](O)c1ccccc1 | 25
